# Test results taken from US20020028851A1, “Guanylhydrazones and their use to treat inflammatory conditions” (priority 1994, published 2002).
# Values joined by “and” are separate entries in the source; they are usually repeats but may differ in a detail not shown here. Equal values may be shown once.
# Assays:
# C3H/HeN mice = assay: Carrageenan-induced paw swelling; assay type: in vivo
# Experimental: Paw edema was induced by injection of 50 microliters of 1% Lambda-carrageenan in HEPES 25 mM, pH 7.4, into the planter surface of the left hindpaw of C3H/HeN mice, the right paw was injected with 50 microliters of HEPES alone. The animals were divided into two groups: controls (n=3) received vehicle only, i.p. 1.5 hour before paw injection; the experimental group […] was treated with Compound No. 14, 5 mg/Kg, i.p. 1.5 hour before paw injection. Three hours after paw injection, paw thickness was measured using a caliper, and the data expressed as change of carrageenan paw vs HEPES paw thickness.
# The results are summarized in Table V which contains the carrageenan-induced increase in paw thickness in mm of three control and three Compound No. 14 treated mice. The inhibition can also be reported as percent inhibition of swelling as defined by the standard formula: Percent inhibition=(1−(treated/control))×100. Calculation of this parameter for treated animals in which Compound No. 14 suppressed swelling yields a 70% inhibition.
# [1] = system: Endothelial Derived Relaxing Factor (EDRF) activity; assay: Acetylcholine-induced hypotensive (EDRF) response; assay type: in vivo, rats; details: 50 mg/Kg single intra-arterial dose; blood pressure 30 sec after ACh
# Experimental: Female Sprague-Dawley rats (225-250 g body weight) were anesthetized with nembutal (50 mg/Kg, i.p.), a tracheostomy tube was inserted, and the carotid artery and jugular vein cannulated by standard methods using polyethylene tubing (PE 50). Tracey, K. J., et al., 1986, SCIENCE 234, 470-474. Blood pressure was recorded continuously with a pressure transducer and recorder (Model RS-3200, Gould Inc.,). In the experiment shown here, animals received a single sterile intra-arterial dose of either N^G-methyl-L-arginine (NMA; Sigma; 10 mg/Kg), Compound No. 14 (50 mg/Kg), or vehicle (0.4 ml). Acetylcholine (ACh) diluted in LPS-free sterile water was administered via the jugular vein cannula at the doses indicated. The solutions were diluted to produce a constant injectable volume of 1 ml/Kg body weight.
# The hypotensive (EDRF) response was measured as the decline in mean arterial blood pressure recorded 30 sec after administration of ACh. The number of animals studied at each dose of acetylcholine was 4-6 for each experimental condition; data are expressed as the mean +s.e.m.
# [2] = system: Nude mice (nu/nu), AtT-20 cells; assay: Tumor-associated cachexia model, urinary urea loss; assay type: in vivo; details: for URINARY UREA LOSS / URINARY UREA LOSS, Sum totals: 0.4 mg/Kg daily i.p.; for URINARY UREA LOSS, Sum totals: sum of listed days
# Experimental: An animal model of tumor-associated protein catabolic illness (cachexia) was employed to directly test the efficacy of Compound No. 14 in reducing whole-body nitrogen losses. Tumors were induced in the appropriate groups by intramuscular inoculation with 15×10^6 AtT-20 cells; this model is known to cause a protein catabolic illness characterized by the consumption of normal quantities of food, but 20% net whole-body losses of protein within 14 days. Compound No. 14 was administered to the “treated” groups in a daily dose of 0.4 mg/Kg, intraperitoneal. Nude mice (nu/nu) were housed in metabolic cages (4 per cage) to facilitate collection of daily urine samples for 14 days. Food intake was measured daily. There were four groups of animals: 1) untreated, non-tumor bearing controls; 2) untreated, tumor-bearing; 3) treated, tumor-bearing, and 4) treated, non-tumor-bearing. Urine was collected and urinary urea losses quantified.
# RAW 264.7 cells = assay: Whole cell inhibition assay for NO (nitrite) output; assay type: cell-based, murine; details: for no2/no3 % suppression of induced production: γIFN+LPS, 18 hours
# Experimental: RAW 264.7 cells are plated in microculture wells at 1×10^6/ml in RPMI 1640 with 10% FBS and otherwise standard culture conditions and allowed to adhere for 5 hours. They are then activated with 25 U/ml γIFN and 0.1 μg/ml LPS in the presence of test inhibitors. The urea concentration present in the supernatant media, after 18 hours of culture, is determined by a colorimetric blood urea nitrogen diacetylmonoxime assay performed on an aliquot of the culture supernatant (Sigma Chem. Co., St. Louis, Mo.) and inhibition is expressed as the percentage urea compared to that of a parallel control culture treated identically except that the concentration of added inhibitor is zero.
# The production of nitrite is determined by assay of the same tissue culture supernatant by means of a calorimetric assay. Briefly, 4 parts of test solution containing 1% (w/v) sulfanilamide, 0.1% naphthylethylenediamine di-HCl (Griess Reagent), 2.5% H3PO4 and one part media are mixed, incubated for 10 minutes and the absorbance at 560 nm determined. The nitrite concentrations are interpolated from reference curves prepared using NaNO2.
# Various concentrations of the test compounds are included in the media of the stimulated RAW 264.7 cells in culture. The concentration of urea and/or nitrite after 18 hours of activated culture is determined and compared to the uninhibited control value obtained from at least one parallel culture. The fractional reduction is calculated for each concentration of inhibitor and the IC50 (concentration giving 50% reduction) is interpolated. Compounds were dissolved in media with mild heat (60° C.). Those with limited solubility were dissolved in base. The concentration of stock solutions of those compounds which were not completely soluble was determined by OD280.
# This section describes experiments that measure the concentration of Compound No. 14 needed to inhibit arginine uptake and NO output. The techniques employed were described in section 7.1 supra.
# [3] = over the 14 day period, per mouse
structure (smiles),measurement,setting,value
"CC(=NNC(=N)N)c1cc(NC(=O)CCCCCCCCC(=O)Nc2cc(C(C)=NNC(=N)N)cc(C(C)=NNC(=N)N)c2)cc(C(C)=NNC(=N)N)c1.Cl.Cl.Cl.Cl [Compound 14, N,N′-bis(3,5-diacetyl-phenyl)decanediamide tetrakis(amidinohydrazone) tetrahydrochloride]",CHANGE IN PAW THICKNESS (carrageenan paw vs HEPES paw),"C3H/HeN mice; 5 mg/Kg i.p. 1.5 hour before paw injection, three hours after, individual mice",0.54 mm and 0.41 mm and 0.4 mm
same,Percent inhibition of swelling,"C3H/HeN mice; 5 mg/Kg i.p., (1−(treated/control))×100",70%
same,acetylcholine-induced EDRF activity in vivo,[1],did not suppress
same,URINARY UREA LOSS,"[2]; Controls, Treated (non-tumor-bearing), day 2",193 mg/group
same,URINARY UREA LOSS,"[2]; Controls, Treated (non-tumor-bearing), day 4",285 mg/group
same,URINARY UREA LOSS,"[2]; Controls, Treated (non-tumor-bearing), day 6",397 mg/group
same,URINARY UREA LOSS,"[2]; Controls, Treated (non-tumor-bearing), day 7",247 mg/group
same,URINARY UREA LOSS,"[2]; Controls, Treated (non-tumor-bearing), day 8",257 mg/group
same,URINARY UREA LOSS,"[2]; Controls, Treated (non-tumor-bearing), day 10",216 mg/group
same,URINARY UREA LOSS,"[2]; Controls, Treated (non-tumor-bearing), day 11",239 mg/group
same,URINARY UREA LOSS,"[2]; Controls, Treated (non-tumor-bearing), day 12",203 mg/group
same,URINARY UREA LOSS,"[2]; Controls, Treated (non-tumor-bearing), day 13",242 mg/group
same,URINARY UREA LOSS,"[2]; Controls, Treated (non-tumor-bearing), day 14",157 mg/group
same,"URINARY UREA LOSS, Sum totals","[2]; Controls, Treated (non-tumor-bearing)",2436 mg/group
same,URINARY UREA LOSS,"[2]; Tumor, Treated, day 2 after tumor",195 mg/group
same,URINARY UREA LOSS,"[2]; Tumor, Treated, day 4 after tumor",368 mg/group
same,URINARY UREA LOSS,"[2]; Tumor, Treated, day 6 after tumor",295 mg/group
same,URINARY UREA LOSS,"[2]; Tumor, Treated, day 7 after tumor",312 mg/group
same,URINARY UREA LOSS,"[2]; Tumor, Treated, day 8 after tumor",275 mg/group
same,URINARY UREA LOSS,"[2]; Tumor, Treated, day 10 after tumor",206 mg/group
same,URINARY UREA LOSS,"[2]; Tumor, Treated, day 11 after tumor",219 mg/group
same,URINARY UREA LOSS,"[2]; Tumor, Treated, day 12 after tumor",115 mg/group
same,URINARY UREA LOSS,"[2]; Tumor, Treated, day 13 after tumor",201 mg/group
same,URINARY UREA LOSS,"[2]; Tumor, Treated, day 14 after tumor",187 mg/group
same,"URINARY UREA LOSS, Sum totals","[2]; Tumor, Treated",2373 mg/group
same,loss of urea prevented,[2]; over the 14 day period,approximately 200 mg urea/mouse
same,nitrogen retained (equivalent of urea loss prevented),[2]; [3],approximately 100 mg
same,protein retained (equivalent of urea loss prevented),[2]; [3],~625 mg
same,wet muscle mass retained (equivalent of urea loss prevented),[2]; [3],~2.7 g
same,no2/no3 % suppression of induced production,RAW 264.7 cells; dose 2 μM,0%
same,no2/no3 % suppression of induced production,RAW 264.7 cells; dose 10 μM,69%
same,no2/no3 % suppression of induced production,RAW 264.7 cells; dose 50 μM,100%
same,no2/no3 % suppression of induced production,RAW 264.7 cells; dose 200 μM,100%
same,IC50,"RAW 264.7 cells; exposed from 8 hours after stimulation, NO output during hours 12-24, mean±std. err., n=3, read-out: I.C.50 for NO output",20 ± 2 µM
